In one data set the target is T790M EGFR (Homo sapiens, UniProt P00533, T790M). The data set can be described thus: Mass spectrometric analysis of T790M EGFR modification. As to conditions: MS/MS of peptic peptide 791-798.
For data set [1], the system named is H1975 (L858R/T790M) cells. The data set can be described thus: EGFR signaling immunoblot in H1975 cells. It is filed as cell-based. As to conditions: 16 hours. The method, then: All cell lines were maintained in RPMI 1640 (Cellgro; Mediatech Inc., Herndon, Calif.) supplemented with 10% FBS 100 units/mL penicillin, 100 […], and 2 mM glutamine.
The supernatant was used for subsequent procedures. […] Antibody binding was detected using an enhanced chemiluminescence system (New England Nuclear Life Science Products Inc.).
In general terms: A western blot detects proteins with antibodies after separation by electrophoresis.

The next data set concerns lung cancer patients. To be noted: all lung cancer patients, not selected for EGFR mutation; cited from earlier work.
For data set [2] the following is noted: Phase I trial; cited from earlier work.

SMILES strings stand for the structures.

Text for T790M EGFR: (A) Intact ESI mass spectra of the free and inhibitor bound. The raw m/z data are shown on the left and the transformed, mass only spectra shown on the right. The measured and theoretical molecular weights of the unmodified as well as modified version of each protein are indicated. In the transformed mass spectra, peaks corresponding to a phosphorylation are indicated. […] All the ions in these mass spectra have been converted to a single charge state.
For intact protein mass spectral analysis, the proteins T790M alone and with small molecules bound were injected onto a POROS 20 R2 protein trap and desalted with 0.05% trifluoroacetic acid (TFA) at a flow rate of 100 μL/min. The proteins were eluted into the mass spectrometer using a linear 15%-75% (v/v) acetonitrile gradient over 4 min at 50 μL/min using a Shimadzu HPLC system (LC-10ADvp). Intact protein analyses were performed on an LCT-Premier instrument (Waters Corp., Milford, Mass., USA) equipped with a standard electrospray source. The capillary voltage was 3.2 kV and the cone voltage of 35 V. Nitrogen was used as desolvation gas. A source temperature of 175° C. and a desolvation temperature of 80° C. were applied. The instrument was calibrated by infusing a solution of 500 fmol/μL myoglobin and the mass accuracy was less than 10 ppm. […]

For `C=CC(=O)Nc1cccc(Oc2nc(Nc3ccc(N4CCN(C)CC4)cc3)ncc2Cl)c1` [WZ3146, N-(3-(5-chloro-2-(4-(4-methylpiperazin-1-yl)phenylamino)pyrimidin-4-yloxy)phenyl)acrylamide], on T790M EGFR, the “site of covalent attachment” value is listed as “Cys797 was the site of covalent attachment”. Besides, the “inhibition of EGFR, Akt and ERK 1/2 phosphorylation” value in data set [1] is listed as “significantly lower concentrations compared with CL-387,785”.

As to `COc1cc2ncnc(Nc3ccc(F)c(Cl)c3)c2cc1OCCCN1CCOCC1` [gefitinib], the “median time to tumor progression” value with lung cancer patients was “approximately 2 months”.

As to `CCOc1cc2ncc(C#N)c(Nc3ccc(OCc4ccccn4)c(Cl)c3)c2cc1NC(=O)/C=C/CN(C)C` [HKI-272], the highest concentration (Cmax) (as a rule, the peak of the concentration-time curve) in data set [2] is ~200 nM.

In the case of `C#Cc1cccc(Nc2ncnc3cc(OCCOC)c(OCCOC)cc23)c1` [erlotinib], the “median time to tumor progression” value with lung cancer patients is “approximately 2 months”.

The values above are taken from patent US9908884B2, “EGFR inhibitors and methods of treating disorders” (priority 2009, dated 2018).
